Results as given in ChEMBL document CHEMBL3507680, “University of Dundee, Gates Library screen for HepG2 cell viability”.

Assay: Human HepG2 cell viability assay in 384 well format
Assay type: toxicity, cell-based
Set-up: dose 125 nL, time 70.5 hour; concentration not given beside the values
Conditions: HepG2 cells, read-out: Inhibition

SMILES | cytotoxicity at 70.5 h
Cn1cc(C(=O)NCCC(=O)N2CCCCC2)c(-c2cccnc2)n1 | 6.62%
Cc1cc(CN(CC(N)=O)CC(C)C)on1 | 18.1%
CC(=O)N1C[C@H]2CCCN(c3ncc(C)cn3)[C@H]2C1 | -11.8%
CCN(Cc1nc2c(cnn2C)c(=O)[nH]1)c1cccc(F)c1 | -5.89%
COc1cccc(-c2noc(C3CCN(CC4CCCCC4)C3)n2)c1 (configuration not stated) | 18.2%
CN(Cc1cnn(C)c1)C(=O)Cc1ccc2c(c1)OCCO2 | -62.7%
COc1cc(F)ccc1-c1cc(N)ccn1 | -0.436%
CCOc1ccc(Br)cc1-c1cc(N)[nH]n1 | -6.54%
CC(=O)c1ccc(N2CCN(C(=O)c3cnn4c3OCCC4)CC2)cc1 | 1.33%
COc1cc(N2CCC(c3nccn3Cc3ccccc3)CC2)ncn1 | -1.15%
Cc1noc([C@@H]2C[C@H]3CN(Cc4cc(C)on4)C[C@H]3O2)n1 | -4.39%
COCCOc1ncccc1CNCc1c(C)nn(C)c1N(C)C | 2.93%
CC[C@@]1(O)CCN(C(=O)c2ccc(-c3cccc(F)c3)cc2)C[C@H]1O | -7.02%
CNC(=O)CN1CC[C@H]2CN(C(=O)c3ccccc3C)C[C@H]2C1 | -3.61%
CCCc1cc(NC2CCc3nc(C(C)C)nn3C2)n2ncnc2n1 (configuration not stated) | -104%
c1cnnc(N2CCCC2CNCc2nc(-c3ccco3)no2)c1 (configuration not stated) | -14.5%
c1cnc(N2CCN(CCn3ccnc3-c3c[nH]cn3)CC2)nc1 | -6.35%
CCO[C@@H]1CCN(C(=O)c2ccc[nH]2)[C@@H]1Cc1cccnc1 | -6.51%
COc1ccc(CC(=O)NC2(C#N)CCOCC2)c(Cl)c1 | 3.22%

SMILES | cytotoxicity at 70.5 h
Cc1nn(C)c2ncc(NC(=O)N3CCCCCC3)cc12 | -4.95%
CCCC(C)N(C)C(=O)c1nc(S(C)(=O)=O)n2ccccc12 (configuration not stated) | 0.813%
Cc1cccn2c(CNC(C)CCc3ccc(O)cc3)cnc12 (configuration not stated) | -7.78%
CCOC(=O)[C@]12CCCN(Cc3ccco3)C[C@H]1CN(S(C)(=O)=O)C2 | -4.24%
COc1cccc(CC(=O)N2CCc3ncnc(NC(C)C)c3CC2)c1 | -14%
Cc1cc2n(n1)CC(CNCc1ccc(-n3cccn3)nc1)CN2 (configuration not stated) | 3.95%
O=C(COc1cccc(Cl)c1)N1CCOCC(O)(CN2CCCC2)C1 (configuration not stated) | -3.79%
Cc1ccc(C(=O)N2CCN(Cc3ccsc3)CC2)n1C | -7.84%
CC(=O)N1CCC(Cc2nccnc2-c2c(C)n[nH]c2C)C1 (configuration not stated) | -8.33%
Cc1cc(N(C)CCN(C)C)n2nc(C)cc2n1 | -1.46%
COc1ccc(CN2CCCC(N3CCCC3)C2)cc1Cn1cncn1 (configuration not stated) | 10.6%
COc1ccccc1OCC(=O)N1CCN(Cc2noc(C)n2)CC1 | -10.6%
CN(CCNC(=O)NCc1ccsc1)C1CCCC1 | -8.28%
CN(CC(=O)NCC(CCO)c1ccccc1)C(=O)OC(C)(C)C (configuration not stated) | 27.5%
CCCc1ccc(CN2CCC3(CCC(=O)N(CCO)C3)CC2)o1 | -3.93%
CCN(C)c1ccc(C(=O)NCCCc2ccccn2)cn1 | -4.13%
Cc1cnn(CCNc2ncnc3c2CCN(CC2CCOC2)CC3)c1 (configuration not stated) | -2.24%
COc1ccc(CN2CCC3(CC2)CCN(CCN(C)C)C3=O)cc1 | -18%
COc1cccc(NC(=O)N2CCC(O)(C(F)(F)F)C2)c1 (configuration not stated) | -2.52%

SMILES | cytotoxicity at 70.5 h
O=C(CCn1ccnc1)N1CC[C@H](Oc2ccc(F)cc2)[C@@H](O)CC1 | 0.282%
CCOC(=O)N1CCC(NC(C)Cc2cc(C)n[nH]2)CC1 (configuration not stated) | -0.223%
CNC(=O)c1cccc(CN2CCN(C3=NCC(C)(C)S3)CC2)c1 | -5.92%
N#CC1(C(=O)N2CCOC(c3ccc(Cl)cc3)C2)CCCC1 (configuration not stated) | -15.9%
COC(=O)CCc1c(C)nn(-c2nc(C)cc(=O)[nH]2)c1C | 36.4%
O=C(NC1=NCCCN1c1ccc(Cl)cc1)c1cccc(Cl)c1 | 9.24%
CC(C)OCCNC(=O)C1CCC(=O)N(C2CCCC2)C1 (configuration not stated) | -4.22%
CCS(=O)(=O)CCNC1CCN(c2nc3ccc(Cl)cc3s2)CC1 | 4.49%
CC(C)c1nc(CNc2ccc(N3CCC(CO)CC3)cn2)cs1 | 1.5%
O=C(NCc1ccccc1CN1CCCC1)Nc1cccnc1 | -4.93%
Cc1cccc(NS(=O)(=O)c2ccc(C#N)nc2)c1C#N | -4.92%
Cc1cc(C)n(CC2CCCN2C(=O)c2ccc3nnc(C)n3c2)n1 (configuration not stated) | -0.407%
CC(C)n1[nH]c(=O)c2c1NC(=O)CSC2c1ccc(OCC(N)=O)cc1 (configuration not stated) | -11.1%
NCC1[C@H]2CN(Cc3cccc(Cl)c3)C[C@@H]12 (some centres not stated) | -5.77%
CCCn1cc(-c2ccnc(NC3CCc4ccccc4C3)n2)c(C)n1 (configuration not stated) | 19.3%
CNC(=O)c1cc(-n2ccnc2-c2cnc(N(C)C)nc2)ccc1OC | 3.46%
Cc1cc(C(=O)NC2CCc3c(ccc(=O)n3CC3CC3)C2)no1 (configuration not stated) | -6.82%
CCc1ccc(CN2CCN(C)c3ncccc3C2)o1 | 24.1%
Cn1nc(C(=O)NC2CCCC2)cc1NC(=O)C1CC1 | -8.78%
